The text below walks through data of patent publication US10576062B2, “Carbamoyloxymethyl triazole cyclohexyl acids as LPA antagonists” (Bristol-Myers Squibb Company, priority 2016, dated 2020).

T1 sequence (Q92633 whole entry): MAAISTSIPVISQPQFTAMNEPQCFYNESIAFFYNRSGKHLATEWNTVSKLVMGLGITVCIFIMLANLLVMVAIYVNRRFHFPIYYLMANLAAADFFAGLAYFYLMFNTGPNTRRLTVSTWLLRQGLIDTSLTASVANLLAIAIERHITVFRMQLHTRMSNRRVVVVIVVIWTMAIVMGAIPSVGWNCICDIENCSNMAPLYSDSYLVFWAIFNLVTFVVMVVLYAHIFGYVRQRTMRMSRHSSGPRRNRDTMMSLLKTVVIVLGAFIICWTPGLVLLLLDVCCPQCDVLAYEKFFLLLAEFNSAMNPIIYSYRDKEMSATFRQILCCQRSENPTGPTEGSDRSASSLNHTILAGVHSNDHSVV

The first assay addresses T1, human LPA1 (Homo sapiens, UniProt Q92633).
T1 construct: expressed in transfected cells; host or cells: Chinese hamster ovary (CHO) cells
In words: LPA1 functional antagonist assay (LPA-induced calcium flux). Format: cell-based. Particulars: human LPA1; read-out: hLPA1 IC50. The method in brief: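 CHO cells overexpressing human LPA1, loaded with calcium dye 30 min at 37° C, were preincubated 20 min at room temperature with compound (0.08 nM–5 μM, 0.5% DMSO) in HBSS/20 mM HEPES/0.1% fatty acid-free BSA.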
On the technique in general: Calcium flux is commonly read through the fluorescence of an indicator in the cells.
As a reminder, the IC50 is the concentration that gives 50% inhibition. In the case of `Cc1nc(-c2nnn(C)c2COC(=O)N2CC3(CCCC3)C2)ccc1O[C@H]1CCC[C@H](C(=O)O)C1` [Example 159, (1S,3S)-3-((6-(5-(((2-azaspiro[3.4]octane-2-carbonyl)oxy)methyl)-1-methyl-1H-1,2,3-triazol-4-yl)-2-methylpyridin-3-yl)oxy)cyclohexane-1-carboxylic acid], the IC50 was 162 nM.

Regarding `Cc1nc(-c2nnn(C)c2COC(=O)N(C)C2CC(C)(C)C2)ccc1O[C@H]1CCC[C@@H](C(=O)O)C1` [Example 160, (1R,3S)-3-((6-(5-((((3,3-dimethylcyclobutyl)(methyl)carbamoyl)oxy)methyl)-1-methyl-1H-1,2,3-triazol-4-yl)-2-methylpyridin-3-yl)oxy)cyclohexane-1-carboxylic acid], the IC50 is 61 nM.

For the compound `Cc1nc(-c2nnn(C)c2COC(=O)N(C)CCC2CC2)ccc1O[C@H]1CCC[C@H](C(=O)O)C1` [Example 162, (1S,3S)-3-((6-(5-((((2-cyclopropylethyl)(methyl)carbamoyl)oxy)methyl)-1-methyl-1H-1,2,3-triazol-4-yl)-2-methylpyridin-3-yl)oxy)cyclohexane-1-carboxylic acid], the IC50 amounted to 34 nM.

As to `Cc1nc(-c2nnn(C)c2COC(=O)N2C3CCC2CC3)ccc1O[C@H]1CCC[C@H](C(=O)O)C1` [Example 167, (1S,3S)-3-((6-(5-(((-7-azabicyclo[2.2.1]heptane-7-carbonyl)oxy)methyl)-1-methyl-1H-1,2,3-triazol-4-yl)-2-methylpyridin-3-yl)oxy)cyclohexane-1-carboxylic acid], the IC50 worked out at 317 nM.

For the compound `Cc1nc(-c2nnn(C)c2COC(=O)N(C)C2CC(C)(C)C2)ccc1O[C@H]1CCC[C@H](C(=O)O)C1` [Example 168, (1S,3S)-3-((6-(5-((((3,3-dimethyl-cyclobutyl)(methyl)carbamoyl)oxy)methyl)-1-methyl-1H-1,2,3-triazol-4-yl)-2-methylpyridin-3-yl)oxy)cyclohexane-1-carboxylic acid], the IC50 is 29 nM.

With `Cc1nc(-c2nnn(C)c2COC(=O)N(C)C(C)(C)C)ccc1O[C@H]1CCC[C@H](C(=O)O)C1` [Example 170, (1S,3S)-3-((6-(5-(((tert-butyl(methyl)carbamoyl)oxy)methyl)-1-methyl-1H-1,2,3-triazol-4-yl)-2-methylpyridin-3-yl)oxy)cyclohexane-1-carboxylic acid], the IC50 was determined as 183 nM.

`Cc1nc(-c2nnn(C)c2COC(=O)N2CCC3(CC2)CC3)ccc1O[C@H]1CCC[C@H](C(=O)O)C1` [Example 171, (1S,3S)-3-((6-(5-(((6-azaspiro[2.5]octane-6-carbonyl)oxy)methyl)-1-methyl-1H-1,2,3-triazol-4-yl)-2-methylpyridin-3-yl)oxy)cyclohexane-1-carboxylic acid]: the IC50 came to 162 nM.

For the compound `CC(C)=CCN(C)C(=O)OCc1c(-c2ccc(O[C@H]3CCC[C@@H](C(=O)O)C3)c(C)n2)nnn1C` [Example 172, (1R,3S)-3-((2-methyl-6-(1-methyl-5-(((methyl(3-methylbut-2-en-1-yl)carbamoyl)oxy)methyl)-1H-1,2,3-triazol-4-yl)pyridin-3-yl)oxy)cyclohexane-1-carboxylic acid], the IC50 stood at 312 nM.

On to `CCCN(C)C(=O)OCc1c(-c2ccc(O[C@H]3CCC[C@H](C(=O)O)C3)cn2)nnn1C` [Example 173, (1S,3S)-3-((6-(1-methyl-5-(((methyl(propyl)carbamoyl)oxy)methyl)-1H-1,2,3-triazol-4-yl)pyridin-3-yl)oxy)cyclohexane-1-carboxylic acid], for which the IC50 is 131 nM.

As to `CN(C(=O)OCc1c(-c2ccc(O[C@H]3CCC[C@H](C(=O)O)C3)cn2)nnn1C)C1CCC1` [Example 174, (1S,3S)-3-((6-(5-(((cyclobutyl(methyl)carbamoyl)oxy)methyl)-1-methyl-1H-1,2,3-triazol-4-yl)pyridin-3-yl)oxy)cyclohexane-1-carboxylic acid], the IC50 was determined as 58 nM.

Consider `Cn1nnc(-c2ccc(O[C@H]3CCC[C@H](C(=O)O)C3)cn2)c1COC(=O)N1CCC2(CCC2)C1` [Example 175, (1S,3S)-3-((6-(5-(((6-azaspiro[3.4]octane-6-carbonyl)oxy)methyl)-1-methyl-1H-1,2,3-triazol-4-yl)pyridin-3-yl)oxy)cyclohexane-1-carboxylic acid], for which the IC50 is 703 nM.

Consider `Cn1nnc(-c2ccc(O[C@H]3CCC[C@H](C(=O)O)C3)cn2)c1COC(=O)N1CC2(CCC2)C1` [Example 176, (1S,3S)-3-((6-(5-(((2-azaspiro[3.3]heptane-2-carbonyl)oxy)methyl)-1-methyl-1H-1,2,3-triazol-4-yl)pyridin-3-yl)oxy)cyclohexane-1-carboxylic acid], for which the IC50 stood at 400 nM.

For `CC(C)=CCN(C)C(=O)OCc1c(-c2ccc(O[C@H]3CCC[C@H](C(=O)O)C3)c(C)n2)nnn1C` [Example 177, (1S,3S)-3-((2-methyl-6-(1-methyl-5-(((methyl(3-methylbut-2-en-1-yl)carbamoyl)oxy)methyl)-1H-1,2,3-triazol-4-yl)pyridin-3-yl)oxy)cyclohexane-1-carboxylic acid], the IC50 was determined as 21 nM.

Regarding `Cc1nc(-c2nnn(C)c2COC(=O)N(C)C(C)(C)CF)ccc1O[C@H]1CCC[C@H](C(=O)O)C1` [Example 178, (1S,3S)-3-((6-(5-((((1-fluoro-2-methylpropan-2-yl)(methyl)carbamoyl)oxy)methyl)-1-methyl-1H-1,2,3-triazol-4-yl)-2-methyl-pyridin-3-yl)oxy)cyclohexane-1-carboxylic acid], the IC50 turned out to be 156 nM.

In the case of `Cc1nc(-c2nnn(C)c2COC(=O)N(C)C2CC3(CC3)C2)ccc1O[C@H]1CCC[C@H](C(=O)O)C1` [Example 179, (1S,3S)-3-((2-methyl-6-(1-methyl-5-(((methyl(spiro[2.3]hexan-5-yl)carbamoyl)oxy)methyl)-1H-1,2,3-triazol-4-yl)pyridin-3-yl)oxy)cyclohexane-1-carboxylic acid], the IC50 came to 14 nM.

With `CN(C(=O)OCc1c(-c2ccc(O[C@H]3CCC[C@H](C(=O)O)C3)cn2)nnn1C)C1CC2(CCC2)C1` [Example 180, (1S,3S)-3-((6-(1-methyl-5-(((methyl(spiro[3.3]heptan-2-yl)carbamoyl)oxy)methyl)-1H-1,2,3-triazol-4-yl)pyridin-3-yl)oxy)cyclohexane-1-carboxylic acid], the concentration for half-maximal inhibition (IC50) stood at 62 nM.

The same assay, now with this note: read-out: hLPA1 IC50.
Consider `Cc1nc(-c2nnn(C)c2COC(=O)N2CCC3CCCC32)ccc1O[C@H]1CCC[C@H](C(=O)O)C1` (stereo partly drawn) [Example 149, (1S,3S)-3-((2-methyl-6-(1-methyl-5-(((octahydrocyclopenta[b]pyrrole-1-carbonyl)oxy)methyl)-1H-1,2,3-triazol-4-yl)pyridin-3-yl)oxy)cyclohexane-1-carboxylic acid], for which the IC50 came to 180 nM.

Consider `Cc1nc(-c2nnn(C)c2COC(=O)N2CC(C)(C)C2)ccc1O[C@H]1CCC[C@H](C(=O)O)C1` [Example 155, (1S,3S)-3-((6-(5-(((3,3-dimethylazetidine-1-carbonyl)oxy)methyl)-1-methyl-1H-1,2,3-triazol-4-yl)-2-methylpyridin-3-yl)oxy)cyclohexane-1-carboxylic acid], for which the IC50 is 175 nM.

Consider `Cc1nc(-c2nnn(C)c2COC(=O)N2CC(C)C2)ccc1O[C@H]1CCC[C@H](C(=O)O)C1` [Example 156, (1S,3S)-3-((2-methyl-6-(1-methyl-5-(((3-methylazetidine-1-carbonyl)oxy)methyl)-1H-1,2,3-triazol-4-yl)pyridin-3-yl)oxy)cyclohexane-1-carboxylic acid], for which the IC50 stood at 231 nM.
